Measurements from patent US8546072B2, “Substrate for assaying β-glucan and/or endotoxin and assay method” (Wako Pure Chemical Industries, Ltd., priority 2008, dated 2013).
Primed or numbered codes have the meaning given here. The star is where a group is joined. NH(CH2)4NH′ = not defined here; Boc = CC(C)(C)OC(=O)*

Tested on: clotting enzyme
Test: Study on the reactivity of clotting enzyme by substrate (β-glucan-activated LAL fraction, HPLC of released fluorescent compound)
Assay type: biochemical, Limulus polyphemus
Conditions: β-glucan-specific LAL fraction, 25 ng/mL standard β-glucan (lentinan), 37° C., FIG. 3
Protocol: b) Aqueous solution of the peptide derivative of the present invention (hereinafter, sometimes abbreviated as substrate of the present invention): Boc-Thr-Gly-Arg-Gly-NH(CH2)4NH-Hilyte647 was dissolved in β-glucan-free water, and prepared to give 640 μM.
c) Aqueous substrate solution of known analogous substrate: Boc-Thr-Gly-Arg-NH-(CH2)4—NH-HiLyte647 obtained in Reference Example 1 was dissolved in β-glucan-free water, and prepared to give 640 μM.
d) Standard β-glucan solution: Intravenous lentinan preparation “Astellas” (Astellas Pharma Inc.) (1 mg) was dissolved in 0.1 M aqueous sodium hydroxide to give 50 μg/mL, and the solution was then diluted appropriately with β-glucan-free water, and used as the standard β-glucan solution. e) β-glucan specific LAL fraction solution: A fraction in which β-glucan-dependent clotting enzyme activity was detected was collected from the blood cell of American horseshoe crab (Limulus polyphemus) according to LAL extraction method described in pages 268 to 269 of “T. Kitagawa et al., Journal of Chromatography, 567 (1991) 267-273” and fractionation method by ion exchange chromatography, LAL fraction (a fraction corresponding to the fraction Nos. 7 to 20 in the above described literature) in 20 mM Tris-HCl buffer (pH 8.0) was obtained. […]

## Boc-Thr-Gly-Arg-Gly-NH(CH2)4NH-Hilyte647 (Boc-TGRG-{NH(CH2)4NH′-HiLyte Fluor 647}) [tetrapeptide substrate with butanediamine spacer and HiLyte Fluor 647 dye]
Substrate 160 μM in reagent for reaction 1
  time in which the substrate was cleaved by the clotting enzyme: about 20 minutes

## Boc-Thr-Gly-Arg-NH(CH2)4NH-Hilyte647 [Reference Example 1]
After 2 hours of reaction
  decomposition rate (area of released fluorescent compound versus total area): ≤ 20%
